Reference: patent US20240217978A1 (CHONG KUN DANG PHARMACEUTICAL CORP., priority 2021, published 2024)

Molecular target: human adenosine A2a receptor (Homo sapiens (Human), UniProt P29274)
Assay: A2a receptor binding affinity, [3H]-NECA radioligand binding test
Settings: [3H]-NECA 37 nM; membrane from HEK-293 cells transfected with human adenosine A2a receptor
Protocol: The binding affinity of the compounds according to Examples of the present invention to the human adenosine A2a receptor was evaluated by entrusting SB drug discovery in the UK.
A radioligand binding test was conducted by using [3H]-NECA (5′-N-[adenine-2,8-3H]-ethylcarboxamidoadenosine) and an adenosine A2a membrane. As the adenosine A2a membrane, a cell membrane prepared from HEK-293 cells transfected with human adenosine A2a receptor was used. The membrane used for the test was prepared by incubating with a radioligand until equilibrium was reached. In order to separate the radioligand-bound membrane, the unbound radioligand was separated by using Packard filtermate Harverster and glass filter plates.
10 μL of test compound dissolved in binding buffer (50 mM Tris, 10 mM MgCl2, 1 mM EDTA pH 7.4) and 20 μL of [3H]-NECA (final concentration of 37 nM) or reference inhibitor was mixed with 20 μL of A2a membrane in an unbound 96-well plate and incubated at room temperature for one hour. Prior to filtration, a 96-well harvest filter plate was coated with 0.33% polyethylenimine for 30 minutes and then washed with assay buffer. The binding reaction was transferred to the filter plate and washed three times with wash buffer. The dish was then dried, scintillant was added, and radioactivity was counted in a scintillation counter (Topcount NXT, Packard).
The binding affinity IC50 (μM) for the human adenosine A2a receptor obtained according to the above experimental method is shown in the table below.

Sequence of human adenosine A2a receptor (P29274 whole entry): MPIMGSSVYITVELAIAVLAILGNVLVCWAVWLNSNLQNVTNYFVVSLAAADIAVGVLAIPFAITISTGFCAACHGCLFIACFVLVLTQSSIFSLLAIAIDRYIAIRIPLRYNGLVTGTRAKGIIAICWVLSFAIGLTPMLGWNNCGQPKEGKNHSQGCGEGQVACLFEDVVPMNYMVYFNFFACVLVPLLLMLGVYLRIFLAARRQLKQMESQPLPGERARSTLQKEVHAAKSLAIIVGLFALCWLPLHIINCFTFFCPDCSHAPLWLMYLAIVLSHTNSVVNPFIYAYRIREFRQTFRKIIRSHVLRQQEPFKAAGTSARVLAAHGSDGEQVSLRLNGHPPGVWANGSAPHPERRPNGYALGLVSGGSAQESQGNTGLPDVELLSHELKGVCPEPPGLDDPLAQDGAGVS

IC50 | Structure (SMILES)
18 nM | COCCN1CCN(C(=O)[C@@H](Nc2nc(N)n3nc(-c4ccco4)nc3n2)C(C)C)CC1 [Example 60, (S)-2-((7-amino-2-(furan-2-yl)-[1,2,4]triazolo[1,5-a][1,3,5]triazin-5-yl)amino)-1-(4-(2-methoxyethyl)piperazin-1-yl)-3-methylbutan-1-one]
2 nM | CCCCCN1CCN(C(=O)[C@@H]2CCCN2c2nc(N)n3nc(-c4ccco4)nc3n2)CC1 [Example 138, (S)-(1-(7-amino-2-(furan-2-yl)-[1,2,4]triazolo[1,5-a][1,3,5]triazin-5-yl)pyrrolidin-2-yl)(4-pentylpiperazin-1-yl)methanone]
3 nM | Nc1nc(N2CCC[C@H]2C(=O)N2CCC(C3CCN(CC(F)F)CC3)CC2)nc2nc(-c3ccco3)nn12 [Example 287, (S)-(1-(7-amino-2-(furan-2-yl)-[1,2,4]triazolo[1,5-a][1,3,5]triazin-5-yl)pyrrolidin-2-yl)(1′-(2,2-difluoroethyl)-[4,4′-bipiperidin]-1-yl)methanone]
0.3 nM | C[C@H](Nc1nc(N)n2nc(-c3ccco3)nc2n1)C(=O)N1CCN(c2ncccn2)CC1 [Example 240, (S)-2-((7-amino-2-(furan-2-yl)-[1,2,4]triazolo[1,5-a][1,3,5]triazin-5-yl)amino)-1-(4-(pyrimidin-2-yl)piperazin-1-yl)propan-1-one]
0.08 nM | CCC(C)[C@H](Nc1nc(N)n2nc(-c3ccco3)nc2n1)C(=O)N1CCN(c2ccc(F)cc2F)CC1 (stereo partly drawn) [Example 166, (2S)-2-((7-amino-2-(furan-2-yl)-[1,2,4]triazolo[1,5-a][1,3,5]triazin-5-yl)amino)-1-(4-(2,4-difluorophenyl)piperazin-1-yl)-3-methylpentan-1-one]
9 nM | Cc1ccc(-c2nc3nc(N4CCC[C@H]4C(=O)N4CCN(CC(F)(F)C(F)(F)F)CC4)nc(N)n3n2)o1 [Example 299, (S)-(1-(7-amino-2-(5-methylfuran-2-yl)-[1,2,4]triazolo[1,5-a][1,3,5]triazin-5-yl)pyrrolidin-2-yl)(4-(2,2,3,3,3-pentafluoropropyl)piperazin-1-yl)methanone]
1.92 nM | Nc1nc(N[C@@H](CO)C(=O)N2CCN(c3ccc(F)cc3F)CC2)nc2nc(-c3ccco3)nn12 [Example 8, (S)-2-((7-amino-2-(furan-2-yl)-[1,2,4]triazolo[1,5-a][1,3,5]triazin-5-yl)amino)-1-(4-(2,4-difluorophenyl)piperazin-1-yl)-3-hydroxypropan-1-one]
0.8 nM | Nc1nc(N2CC3(CC3)C[C@H]2C(=O)N2CCN(CC(F)(F)F)CC2)nc2nc(-c3ccco3)nn12 [Example 385, (S)-(5-(7-amino-2-(furan-2-yl)-[1,2,4]triazolo[1,5-a][1,3,5]triazin-5-yl)-5-azaspiro[2.4]heptan-6-yl)(4-(2,2,2-trifluoroethyl)piperazin-1-yl)methanone]
13 nM | Nc1nc(N2CCC[C@H]2C(=O)N2CCC(C3CCN(CC(F)F)CC3)CC2)cc2nc(-c3ccco3)nn12 [Example 393, (S)-(1-(5-amino-2-(furan-2-yl)-[1,2,4]triazolo[1,5-c]pyrimidin-7-yl)pyrrolidin-2-yl)(1′-(2,2-difluoroethyl)-[4,4′-bipiperidin]-1-yl)methanone]
8 nM | CC(C)C[C@H](Nc1nc(N)n2nc(-c3ccco3)nc2n1)C(=O)N1CCN(CC(F)(F)F)CC1 [Example 215, (S)-2-((7-amino-2-(furan-2-yl)-[1,2,4]triazolo[1,5-a][1,3,5]triazin-5-yl)amino)-4-methyl-1-(4-(2,2,2-trifluoroethyl)piperazin-1-yl)pentan-1-one]
33 nM | COc1cccc(CN2CCN(C(=O)[C@H](C)Nc3nc(N)n4nc(-c5ccco5)nc4n3)CC2)c1 [Example 24, (S)-2-((7-amino-2-(furan-2-yl)-[1,2,4]triazolo[1,5-a][1,3,5]triazin-5-yl)amino)-1-(4-(3-methoxybenzyl)piperazin-1-yl)propan-1-one]
3 nM | Nc1nc(N2CCC[C@H]2C(=O)N2CCN(c3ncccn3)CC2)nc2nc(-c3ccco3)nn12 [Example 127, (S)-(1-(7-amino-2-(furan-2-yl)-[1,2,4]triazolo[1,5-a][1,3,5]triazin-5-yl)pyrrolidin-2-yl)(4-(pyrimidin-2-yl)piperazin-1-yl)methanone]
13 nM | Nc1nc(N2CC[C@H]2C(=O)N2CCN(C(=O)c3ccccc3)CC2)nc2nc(-c3ccco3)nn12 [Example 109, (S)-(1-(7-amino-2-(furan-2-yl)-[1,2,4]triazolo[1,5-a][1,3,5]triazin-5-yl)azetidin-2-yl)(4-benzoylpiperazin-1-yl)methanone]
3 nM | CC(C)(F)CN1CCN(C(=O)[C@@H](Nc2nc(N)n3nc(-c4ccco4)nc3n2)C2CCCCC2)CC1 [Example 147, (S)-2-((7-amino-2-(furan-2-yl)-[1,2,4]triazolo[1,5-a][1,3,5]triazin-5-yl)amino)-2-cyclohexyl-1-(4-(2-fluoro-2-methylpropyl)piperazin-1-yl)ethan-1-one]
10 nM | Nc1nc(N2CCC[C@H]2C(=O)N2CCN(Cc3ccccc3)CC2)nc2nc(-c3nccs3)nn12 [Example 193, (S)-(1-(7-amino-2-(thiazol-2-yl)-[1,2,4]triazolo[1,5-a][1,3,5]triazin-5-yl)pyrrolidin-2-yl)(4-benzylpiperazin-1-yl)methanone]
3 nM | Nc1nc(N2CC[C@H]2C(=O)N2CCC(C3CCN(CC(F)F)CC3)CC2)nc2nc(-c3ccco3)nn12 [Example 323, (S)-(1-(7-amino-2-(furan-2-yl)-[1,2,4]triazolo[1,5-a][1,3,5]triazin-5-yl)azetidin-2-yl)(1′-(2,2-difluoroethyl)-[4,4′-bipiperidin]-1-yl)methanone]
5 nM | COC[C@H](Nc1nc(N)n2nc(-c3ccco3)nc2n1)C(=O)N1CCN(CC(C)(C)O)CC1 [Example 399, (S)-2-((7-amino-2-(furan-2-yl)-[1,2,4]triazolo[1,5-a][1,3,5]triazin-5-yl)amino)-1-(4-(2-hydroxy-2-methylpropyl)piperazin-1-yl)-3-methoxypropan-1-one]
0.5 nM | CCOC(=O)c1ccc(N2CCN(C(=O)[C@@H]3CCCN3c3nc(N)n4nc(-c5ccco5)nc4n3)CC2)cc1 [Example 123, Ethyl 4-(4-((7-amino-2-(furan-2-yl)-[1,2,4]triazolo[1,5-a][1,3,5]triazin-5-yl)-L-prolyl)piperazin-1-yl)benzoate]
8 nM | Nc1nc(N2CCCC[C@H]2C(=O)N2CCN(Cc3ccc(F)cc3F)CC2)nc2nc(-c3ccco3)nn12 [Example 29, (S)-(1-(7-amino-2-(furan-2-yl)-[1,2,4]triazolo[1,5-a][1,3,5]triazin-5-yl)piperidin-2-yl)(4-(2,4-difluorobenzyl)piperazin-1-yl)methanone]
8 nM | Nc1nc(N2CCC[C@H]2C(=O)N2CCN(CC(F)(F)F)CC23CC3)nc2nc(-c3ccco3)nn12 [Example 342, (S)-(1-(7-amino-2-(furan-2-yl)-[1,2,4]triazolo[1,5-a][1,3,5]triazin-5-yl)pyrrolidin-2-yl)(7-(2,2,2-trifluoroethyl)-4,7-diazaspiro[2.5]octan-4-yl)methanone]
26 nM | COCCN1CCC(C2CCN(C(=O)[C@@H]3CCN3c3nc(N)n4nc(-c5ccco5)nc4n3)CC2)CC1 [Example 329, (S)-(1-(7-amino-2-(furan-2-yl)-[1,2,4]triazolo[1,5-a][1,3,5]triazin-5-yl)azetidin-2-yl)(1′-(2-methoxyethyl)-[4,4′-bipiperidin]-1-yl)methanone]
0.9 nM | Nc1nc(N2CCC[C@H]2C(=O)N2CCN(CC(F)(F)C(F)F)CC2)nc2sc(-c3ccco3)nc12 [Example 260, (S)-(1-(7-amino-2-(furan-2-yl)thiazolo[5,4-d]pyrimidin-5-yl)pyrrolidin-2-yl)(4-(2,2,3,3-tetrafluoropropyl)piperazin-1-yl)methanone]
1 nM | Nc1nc(N[C@H](C(=O)N2CCN(c3ccc(F)cc3F)CC2)C2CCCC2)nc2nc(-c3ccco3)nn12 [Example 170, (S)-2-((7-amino-2-(furan-2-yl)-[1,2,4]triazolo[1,5-a][1,3,5]triazin-5-yl)amino)-2-cyclopentyl-1-(4-(2,4-difluorophenyl)piperazin-1-yl)ethan-1-one]
12 nM | CCC(F)(F)CN1CCN(C(=O)[C@@H]2CCN2c2nc(N)n3nc(-c4ccco4)nc3n2)CC1 [Example 254, (S)-(1-(7-amino-2-(furan-2-yl)-[1,2,4]triazolo[1,5-a][1,3,5]triazin-5-yl)azetidin-2-yl)(4-(2,2-difluorobutyl)piperazin-1-yl)methanone]
3 nM | Nc1nc(N2CCC[C@H]2C(=O)N2CCN(CC(F)(F)F)CC2)nc2sc(-c3ccco3)nc12 [Example 238, (S)-(1-(7-amino-2-(furan-2-yl)thiazolo[5,4-d]pyrimidin-5-yl)pyrrolidin-2-yl)(4-(2,2,2-trifluoroethyl)piperazin-1-yl)methanone]
0.5 nM | Nc1nc(N2CCC[C@H]2C(=O)N2CCN(c3ncc4c(n3)COC4)CC2)nc2nc(-c3ccco3)nn12 [Example 384, 2-(4-((7-amino-2-(furan-2-yl)-[1,2,4]triazolo[1,5-a][1,3,5]triazin-5-yl)-L-prolyl)piperazin-1-yl)-5,7-dihydrofuro[3,4-d]pyrimidine]
